Values joined by “and” are separate entries in the source; they are usually repeats but may differ in a detail not shown here. Equal entries are not always repeated. Residues, ends and D or L forms follow the SMILES beside them. No end group written: not given here. *: point of attachment. X1 = O=C(O)CN1CCN(CC(=O)O)CCN(C(CCC(=O)NCCN2C(=O)CC(*)C2=O)C(=O)O)CC1
Legend:
[1] = molecular target: Fn fibers in PC-3 xenograft tumor tissue of CD1 nude mice (not stated (human PC-3 xenograft in CD1 nude mouse)) (UniProt P11276)
Fn fibers in PC-3 xenograft tumor tissue of CD1 nude mice (not stated (human PC-3 xenograft in CD1 nude mouse)), sequence (P11276 33-2477): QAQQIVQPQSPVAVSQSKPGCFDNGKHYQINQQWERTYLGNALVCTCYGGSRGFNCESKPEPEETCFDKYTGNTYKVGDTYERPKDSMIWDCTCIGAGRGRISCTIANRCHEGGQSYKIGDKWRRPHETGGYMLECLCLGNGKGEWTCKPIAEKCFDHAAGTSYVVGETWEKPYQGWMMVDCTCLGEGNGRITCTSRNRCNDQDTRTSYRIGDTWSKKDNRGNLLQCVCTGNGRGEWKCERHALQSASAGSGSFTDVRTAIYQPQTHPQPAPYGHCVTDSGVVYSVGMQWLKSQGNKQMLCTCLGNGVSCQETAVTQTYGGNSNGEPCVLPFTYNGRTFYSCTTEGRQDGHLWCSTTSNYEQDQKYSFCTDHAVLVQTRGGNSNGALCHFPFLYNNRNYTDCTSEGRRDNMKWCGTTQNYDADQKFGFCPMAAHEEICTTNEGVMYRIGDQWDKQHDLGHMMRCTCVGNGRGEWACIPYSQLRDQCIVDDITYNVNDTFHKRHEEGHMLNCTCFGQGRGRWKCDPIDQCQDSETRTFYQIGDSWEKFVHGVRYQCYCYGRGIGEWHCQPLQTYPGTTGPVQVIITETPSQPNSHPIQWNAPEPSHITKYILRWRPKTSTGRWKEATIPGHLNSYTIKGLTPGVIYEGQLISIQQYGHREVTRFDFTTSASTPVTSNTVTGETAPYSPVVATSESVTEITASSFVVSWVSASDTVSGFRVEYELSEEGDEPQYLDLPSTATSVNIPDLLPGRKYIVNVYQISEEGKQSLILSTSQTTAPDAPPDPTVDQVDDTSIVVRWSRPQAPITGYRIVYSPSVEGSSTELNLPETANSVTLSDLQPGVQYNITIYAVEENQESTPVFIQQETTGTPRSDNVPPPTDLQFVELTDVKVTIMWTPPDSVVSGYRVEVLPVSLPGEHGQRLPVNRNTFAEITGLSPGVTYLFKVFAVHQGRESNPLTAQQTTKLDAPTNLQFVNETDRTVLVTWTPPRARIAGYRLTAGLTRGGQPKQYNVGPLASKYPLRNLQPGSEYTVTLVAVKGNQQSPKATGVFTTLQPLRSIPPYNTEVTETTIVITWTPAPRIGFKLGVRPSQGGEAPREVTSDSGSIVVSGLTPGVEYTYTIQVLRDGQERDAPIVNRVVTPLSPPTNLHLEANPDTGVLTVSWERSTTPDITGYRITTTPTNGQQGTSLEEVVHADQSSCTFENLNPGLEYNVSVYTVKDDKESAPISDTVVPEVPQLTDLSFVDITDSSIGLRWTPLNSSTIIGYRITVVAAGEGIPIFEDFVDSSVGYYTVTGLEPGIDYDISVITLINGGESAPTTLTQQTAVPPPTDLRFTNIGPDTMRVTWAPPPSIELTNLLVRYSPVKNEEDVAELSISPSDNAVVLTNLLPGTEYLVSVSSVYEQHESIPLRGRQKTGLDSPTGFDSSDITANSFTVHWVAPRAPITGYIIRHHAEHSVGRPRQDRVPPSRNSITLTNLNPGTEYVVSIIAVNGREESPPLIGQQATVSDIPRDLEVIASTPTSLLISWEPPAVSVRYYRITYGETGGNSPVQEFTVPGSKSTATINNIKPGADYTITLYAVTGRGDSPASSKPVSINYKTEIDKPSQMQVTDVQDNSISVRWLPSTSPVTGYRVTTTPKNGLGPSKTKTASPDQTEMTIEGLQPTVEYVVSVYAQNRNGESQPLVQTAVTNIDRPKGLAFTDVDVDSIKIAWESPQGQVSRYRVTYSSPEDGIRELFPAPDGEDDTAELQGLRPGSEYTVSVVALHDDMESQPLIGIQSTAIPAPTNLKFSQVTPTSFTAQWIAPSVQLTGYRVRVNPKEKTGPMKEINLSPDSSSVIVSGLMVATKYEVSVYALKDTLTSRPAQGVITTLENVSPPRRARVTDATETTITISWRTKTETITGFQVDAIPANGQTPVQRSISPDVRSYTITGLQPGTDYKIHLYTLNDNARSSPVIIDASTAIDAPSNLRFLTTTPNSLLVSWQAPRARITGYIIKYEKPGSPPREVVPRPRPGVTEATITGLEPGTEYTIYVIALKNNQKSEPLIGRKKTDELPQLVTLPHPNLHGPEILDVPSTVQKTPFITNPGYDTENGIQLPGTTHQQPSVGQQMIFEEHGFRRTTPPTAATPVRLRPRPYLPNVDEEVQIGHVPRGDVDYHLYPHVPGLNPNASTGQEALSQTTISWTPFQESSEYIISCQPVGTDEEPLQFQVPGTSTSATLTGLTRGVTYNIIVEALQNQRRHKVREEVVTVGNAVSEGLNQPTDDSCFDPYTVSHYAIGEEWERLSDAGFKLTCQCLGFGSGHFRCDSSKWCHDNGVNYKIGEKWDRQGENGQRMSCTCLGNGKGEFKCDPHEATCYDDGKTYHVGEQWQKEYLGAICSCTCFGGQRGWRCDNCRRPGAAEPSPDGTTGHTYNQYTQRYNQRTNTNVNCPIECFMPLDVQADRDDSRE

[2] = molecular target: Fn fibers in PC-3 xenograft tumor tissue of CD1 nude mice (not stated (human PC-3 xenograft in CD1 nude mouse)) (UniProt P11276); remark: listed apart in the source
[3] = molecular target: fibronectin N-terminal fragments (Homo sapiens) (UniProt P02751); conditions: cited from earlier work
fibronectin N-terminal fragments (Homo sapiens), sequence (P02751 50-273): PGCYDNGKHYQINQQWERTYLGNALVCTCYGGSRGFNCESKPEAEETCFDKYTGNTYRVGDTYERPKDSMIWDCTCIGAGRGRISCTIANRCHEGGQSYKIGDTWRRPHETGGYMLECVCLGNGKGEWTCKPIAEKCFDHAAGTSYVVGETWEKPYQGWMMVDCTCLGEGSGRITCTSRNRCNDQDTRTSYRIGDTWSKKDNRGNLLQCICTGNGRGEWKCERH

[4] = In vitro plasma stability; type: in vitro ADME, human; conditions: 37°C, 1 hour time point, RP-HPLC, means from three experiments
Method: The stability of peptides in blood is often limited as they are rapidly cleaved by catalytic enzymes found in tissue and blood, resulting in a short biological half-life. […] To verify whether the FnBPA5 peptide can be used for in vivo applications, we next performed a plasma stability test. The metabolic stability of the peptide radiotracer ^111In-FnBPA5 was tested in vitro by incubating the radiolabeled FnBPA5 at 37°C with human blood plasma, or water as control. The unbound peptide fraction was separated from the plasma proteins at different time points (0, 1, 24, 48, and 72 h) and was analyzed by reversed-phase high-pressure liquid chromatography (RP-HPLC).
After that, the samples were filtrated using a Thomson Single StEP Filter vial 0.45 μm PVDF (Thomson Instrument Company, Oceanside, USA) and the supernatant was analyzed by reversed-phase HPLC (Varian Prostar HPLC System, SpectraLab Scientific Inc., Canada) using a D-Bio Discovery Wide Pore C18 column (25 cm × 4.6 mm; 5 μm).

[5] = Biodistribution in PC-3 tumor grafted mice; type: in vivo, mouse; conditions: female, CD1 nude, mouse, in vivo, iv, total radioactivity; 1 h p.i.; PC-3 grafted mice, i.v. 150 kBq (2.4 nmol, 100 µL PBS), γ counter, mean ± SD, n = 4; read-out: Biodistribution, Kidneys
Method: (§1) Experiments were performed 3–4 weeks after inoculation.
(§2) For the biodistribution experiments, PC-3 tumor grafted mice were injected into the tail vein with 150 kBq ^111In-FnBPA5 or ^111In-scrambled FnBPA5 (2.4 nmol, 100 µL PBS). For each peptide, groups of four mice were sacrificed at 1, 4, 24, and 96 h post injection. Blocking experiment (n = 4) was performed by injection of an excess of peptide (100 µg, 24 nmol in 100 µL PBS) directly before the administration of the corresponding radiolabeled peptide. The organs were collected, weighed and counted for activity with a γ counter (Packard Cobra II Auto, Gamma, PerkinElmer AG, Schwerzenbach, Switzerland) 4 h p.i. The results were expressed as a percentage of injected activity per gram of tissue (% IA per g tissue). The Student's t test analyses were considered as type 3 (two sample unequal variance) and statistical significance was assumed for p-values smaller than 0.05.

[6] = system: PC-3-bearing mice; experiment: Biodistribution in PC-3 tumor grafted mice; type: in vivo, mouse; conditions: PC-3 grafted mice, i.v. 150 kBq (2.4 nmol, 100 µL PBS), γ counter, mean ± SD, n = 4
Method: as §1, §2

[7] = system: PC-3-bearing mice; experiment: In vivo blocking experiment in PC-3 tumor grafted mice; design: species or system mouse; conditions: n = 4
Method: as §2

[8] = system: PC-3-bearing mice; experiment: SPECT/CT imaging of PC-3-bearing mice; type: in vivo, mouse
Method: Thirty-three days from the inoculation of the tumor cells, the mice were intravenously injected with ~15 MBq ^111In-FnBPA5 resp. ^111In-scrambled FnBPA5-NODAGA (2.4 nmol, 100 µL PBS) into the tail vein. […] The images were reconstituted and processed with InVivoScope® software (Bioscan Inc., Washington DC, USA).

[9] = molecular target: T1, fibronectin isolated from human plasma (human, UniProt P02751 32-2477, in the fibers 5% of the protein was Cy5-labeled (Cy5-maleimide on the cryptic cysteines at FnIII7 and FnIII15)); experiment: fluorescence polarisation; anisotropy titration; 100 nM Alexa-488 labeled peptide in PBS, Fn titrated from 0 to 1.4 μM, 20 °C; one-site-binding model; three independent measurements; conditions: both partners purified
[10] = molecular target: T1, fibronectin isolated from human plasma; experiment: single Fn fiber binding assay (confocal microscopy, intensity ratio peptide-Alexa488 / Fn-Cy5); Fn fibers (95% unlabeled, 5% Cy5-labeled) manually pulled onto a silicone sheet and relaxed to about 7% strain; blocked with BSA; varying concentrations of peptide for 1 h, washed, imaged; ratio at 10 μM set to 1; conditions: both partners purified
[11] = 4h p.i. blocking: corresponding unlabeled peptide (24 nmol) i.v. directly before the radiolabeled peptide, PC-3 grafted mice, mean ± SD

Molecule: ^natIn-FnBPA5 (cold labeled) / ^111In-FnBPA5 (peptide)
- tumor uptake of ^111In-FnBPA5 in PC-3-bearing mice, biodistribution at 1, 4, 24 and 96 h p.i. (maximum at 1 h p.i.) [1]: 4.74 % IA per g
- change of ^111In-FnBPA5 uptake in the liver 4 h p.i. after pre-injection of a 10-fold excess of unlabeled FnBPA5 (24 nmol) [2]: -58.2%
- change of ^111In-FnBPA5 uptake in the tumor 4 h p.i. after pre-injection of a 10-fold excess of unlabeled FnBPA5 (24 nmol) [2]: -35.6%

Molecule: FnBPA5 (from UniProt P14738)
- Kd [3]: 44.2 nM

Molecule: CC[C@H](C)[C@H](NC(=O)[C@@H](NC(=O)[C@H](CCC(=O)O)NC(=O)CNC(=O)[C@H](Cc1ccccc1)NC(=O)[C@H](CC(=O)O)NC(=O)[C@@H](NC(=O)[C@H](CCCCN)NC(=O)[C@@H](NC(=O)CNC(=O)[C@@H](NC(=O)[C@H](CC(C)C)NC(=O)[C@H](CC(=O)O)NC(=O)[C@H](CCC(=O)O)NC(=O)[C@H](CCC(N)=O)NC(=O)[C@H](CCC(=O)O)NC(=O)[C@H](CO)NC(=O)CNC(=O)[C@@H](N)CSC1CC(=O)N(CCNC(=O)CCC(C(=O)O)N2CCN(CC(=O)O)CCN(CC(=O)O)CC2)C1=O)[C@@H](C)O)[C@@H](C)O)C(C)C)[C@@H](C)O)C(=O)N[C@H](C(=O)N[C@H](C(=O)N[C@@H](CC(N)=O)C(=O)N[C@@H](CCC(=O)O)C(=O)N[C@@H](C)C(=O)N[C@H](C(=O)N[C@@H](CCC(=O)O)C(=O)N[C@H](C(=O)N[C@H](C(=O)N[C@H](C(=O)N[C@@H](CO)C(=O)NCC(=O)N[C@@H](CO)C(=O)N[C@H](C(=O)N[C@@H](Cc1c[nH]cn1)C(=O)NCC(=O)N[C@H](C(=O)N[C@@H](CCCCN)C(=O)N[C@H](C(=O)O)C(C)C)[C@@H](C)O)[C@@H](C)O)[C@@H](C)O)C(C)C)[C@@H](C)O)[C@@H](C)O)C(C)C)C(C)C (stereo partly drawn) [111In-scrambled FnBPA5, metal not drawn] (H-C(X1)GSEQEDLTGTKVDFGETIVVNEATETVTSGSTHGTKV-OH; N-terminus and C-terminus assumed)
- stability in human blood plasma [4]: high stability
- tissue uptake at 1 h [5]: 163 ± 18 %ID/g
- Biodistribution, Blood ([6]; 1 h p.i.): 0.26 ± 0.064 IA% / g
- Biodistribution, Bone ([6]; 1 h p.i.): 0.15 ± 0.035 IA% / g
- Biodistribution, Heart ([6]; 1 h p.i.): 0.12 ± 0.03 IA% / g
- Biodistribution, Intestines ([6]; 1 h p.i.): 0.09 ± 0.01 IA% / g
- Biodistribution, Kidneys ([6]; 1 h p.i.): 163.70 ± 18.90 IA% / g
- Biodistribution, Liver ([6]; 1 h p.i.): 0.10 ± 0.02 IA% / g
- Biodistribution, Lung ([6]; 1 h p.i.): 0.19 ± 0.03 IA% / g
- Biodistribution, Muscle ([6]; 1 h p.i.): 0.09 ± 0.025 IA% / g
- Biodistribution, Pancreas ([6]; 1 h p.i.): 0.78 ± 0.295 IA% / g
- Biodistribution, Spleen ([6]; 1 h p.i.): 0.21 ± 0.039 IA% / g
- Biodistribution, Stomach ([6]; 1 h p.i.): 0.12 ± 0.013 IA% / g
- Biodistribution, Tumor ([6]; 1 h p.i.): 0.27 ± 0.08 IA% / g
- Biodistribution, Blood ([6]; 4 h p.i.): 0.07 ± 0.008 IA% / g and 0.07 ± 0.01 IA% / g
- Biodistribution, Bone ([6]; 4 h p.i.): 0.10 ± 0.01 IA% / g
- Biodistribution, Heart ([6]; 4 h p.i.): 0.06 ± 0.006 IA% / g
- Biodistribution, Intestines ([6]; 4 h p.i.): 0.04 ± 0.012 IA% / g and 0.04 ± 0.01 IA% / g
- Biodistribution, Kidneys ([6]; 4 h p.i.): 151.43 ± 9.056 IA% / g and 151.43 ± 9.06 IA% / g
- Biodistribution, Liver ([6]; 4 h p.i.): 0.08 ± 0.026 IA% / g and 0.08 ± 0.03 IA% / g
- Biodistribution, Lung ([6]; 4 h p.i.): 0.08 ± 0.005 IA% / g and 0.08 ± 0.01 IA% / g
- Biodistribution, Muscle ([6]; 4 h p.i.): 0.04 ± 0.019 IA% / g and 0.04 ± 0.02 IA% / g
- Biodistribution, Pancreas ([6]; 4 h p.i.): 0.64 ± 0.549 IA% / g and 0.64 ± 0.55 IA% / g
- Biodistribution, Spleen ([6]; 4 h p.i.): 0.13 ± 0.036 IA% / g and 0.13 ± 0.03 IA% / g
- Biodistribution, Stomach ([6]; 4 h p.i.): 0.06 ± 0.006 IA% / g
- Biodistribution, Tumor ([6]; 4 h p.i.): 0.14 ± 0.02 IA% / g
- Biodistribution, Blood ([6]; 24 h p.i.): 0.04 ± 0.005 IA% / g
- Biodistribution, Bone ([6]; 24 h p.i.): 0.09 ± 0.021 IA% / g
- Biodistribution, Heart ([6]; 24 h p.i.): 0.04 ± 0.005 IA% / g
- Biodistribution, Intestines ([6]; 24 h p.i.): 0.03 ± 0.00 IA% / g
- Biodistribution, Kidneys ([6]; 24 h p.i.): 104.62 ± 9.412 IA% / g
- Biodistribution, Liver ([6]; 24 h p.i.): 0.07 ± 0.010 IA% / g
- Biodistribution, Lung ([6]; 24 h p.i.): 0.05 ± 0.006 IA% / g
- Biodistribution, Muscle ([6]; 24 h p.i.): 0.08 ± 0.026 IA% / g
- Biodistribution, Pancreas ([6]; 24 h p.i.): 0.21 ± 0.162 IA% / g
- Biodistribution, Spleen ([6]; 24 h p.i.): 0.14 ± 0.048 IA% / g
- Biodistribution, Stomach ([6]; 24 h p.i.): 0.04 ± 0.017 IA% / g
- Biodistribution, Tumor ([6]; 24 h p.i.): 0.09 ± 0.01 IA% / g
- Biodistribution, Blood ([6]; 96 h p.i.): 0.02 ± 0.005 IA% / g
- Biodistribution, Bone ([6]; 96 h p.i.): 0.13 ± 0.036 IA% / g
- Biodistribution, Heart ([6]; 96 h p.i.): 0.04 ± 0.005 IA% / g
- Biodistribution, Intestines ([6]; 96 h p.i.): 0.02 ± 0.010 IA% / g
- Biodistribution, Kidneys ([6]; 96 h p.i.): 23.63 ± 9.883 IA% / g
- Biodistribution, Liver ([6]; 96 h p.i.): 0.05 ± 0.005 IA% / g
- Biodistribution, Lung ([6]; 96 h p.i.): 0.04 ± 0.014 IA% / g
- Biodistribution, Muscle ([6]; 96 h p.i.): 0.04 ± 0.013 IA% / g
- Biodistribution, Pancreas ([6]; 96 h p.i.): 0.06 ± 0.016 IA% / g
- Biodistribution, Spleen ([6]; 96 h p.i.): 0.10 ± 0.029 IA% / g
- Biodistribution, Stomach ([6]; 96 h p.i.): 0.04 ± 0.029 IA% / g
- Biodistribution, Tumor ([6]; 96 h p.i.): 0.16 ± 0.08 IA% / g
- effect of pre-injection of unlabeled peptide on accumulation ([7]; 24 nmol unlabeled peptide pre-injected, 4 h p.i., Student's t test): no significant differences
- Biodistribution with blocking, Blood [7, 11]: 0.07 ± 0.01 IA% / g
- Biodistribution with blocking, Intestines [7, 11]: 0.07 ± 0.05 IA% / g
- Biodistribution with blocking, Kidneys [7, 11]: 128.81 ± 17.44 IA% / g
- Biodistribution with blocking, Liver [7, 11]: 0.08 ± 0.01 IA% / g
- Biodistribution with blocking, Lung [7, 11]: 0.10 ±0.03 IA% / g
- Biodistribution with blocking, Muscle [7, 11]: 0.04 ± 0.00 IA% / g
- Biodistribution with blocking, Pancreas [7, 11]: 1.41 ±1.25 IA% / g
- Biodistribution with blocking, Spleen [7, 11]: 0.18 ± 0.03 IA% / g
- Biodistribution with blocking, Stomach [7, 11]: 0.08 ± 0.04 IA% / g
- Biodistribution with blocking, Tumor [7, 11]: 0.14 ± 0.04 IA% / g
- SPECT/CT distribution ([8]; ~15 MBq (2.4 nmol, 100 µL PBS) i.v., up to 96 h p.i.): mainly accumulated in the kidneys
- SPECT/CT distribution after kidney removal ([8]; ~15 MBq i.v., 96 h p.i., post mortem, kidneys removed): no uptake was visible

B1: FnBPA5-Alexa488 (peptide)
chain: {C(Alexa488)}-GQVTTESNLVEFDEESTKGIVTGAVSDHTTVEDTK
- Kd [9]: 75 nM
- Kd [10]: 28 nM

— publication PMC5702617, “Novel peptide probes to assess the tensional state of fibronectin fibers in cancer” (Nature Communications, 2017)
